Values of other authors in US8207181B2, “Substituted dihydro, trihydro and tetrahydro cycloalkyloxazolopyrimidinones, preparation and use thereof” (Sanofi, priority 2008, dated 2012).

How the values were obtained:
[1] = tested on: pentylenetetrazole- and picrotoxin-induced seizures
healthy human subjects = details: pretreatment
schizophrenia = details: compared to placebo
animal models = details: some animal models

N[C@H](C(=O)O)c1ccc(C(=O)O)c(O)c1 [(S)-4-carboxy-3-hydroxyphenylglycine]
protection against audiogenic seizures (DBA/2 mice): protects against audiogenic seizures

N[C@@]1(C(=O)O)CC[C@H]2[C@H](C(=O)O)[C@H]21 [LY354740]
effect on chemically induced seizures [1]: attenuates pentylenetetrazole- and picrotoxin-induced seizures
effect on ketamine disruption of working memory (healthy human subjects): attenuation of the disruptive effects of the NMDA glutamate receptor antagonist, ketamine, on working memory

N[C@@]1(C(=O)O)CO[C@H]2[C@H](C(=O)O)[C@H]21 [LY379268]
effect on REM sleep and fast EEG (rat): suppresses rapid eye movement (REM) sleep and fast EEG

CSCC[C@H](N)C(=O)N[C@@]1(C(=O)O)CS(=O)(=O)[C@H]2[C@H](C(=O)O)[C@H]21 [LY2140023]
improvement in positive and negative symptoms of schizophrenia (schizophrenia): statistically significant improvements in both positive and negative symptoms of schizophrenia

N[C@]1(C(=O)O)[C@H]2[C@@H](C[C@H]1OCc1ccc(Cl)c(Cl)c1)[C@]2(F)C(=O)O [MGS0039]
antidepressant-like effects (animal models): dose-dependent antidepressant-like effects

Cc1c(OCc2cccc(-c3ccc(C(=O)O)cc3)c2)cc2c(c1C)C(=O)C(C1CCCC1)C2 (stereo not shown) [biphenyl-indanone A]
antipsychotic- and anxiolytic-like effects (mice): antipsychotic- and anxiolytic-like effects
